The text below walks through data of patent publication USRE50563E1, “Use of an all-D-pentapeptide chemokine antagonist to reduce opioid dose in a person with pain” (Creative Bio-Peptides, Inc., priority 2017, dated 2025).

Read-outs that look alike come from different tables or passages of the source.

Experiment [1] has as its system cytokines, IL1β, TNFα; chemokines CCL2, CCL3; and chemokines receptors CCR2 and CCR5. To be noted: 0.5 mg/kg, for 7 days, p.o., FIGS. 3A-F. As to the method: To test the hypothesis, we first used behavioral and molecular/cellular approaches to explore chronic pain development and inflammatory reaction in Streptozotocin (STZ) induced diabetic rats. […] CCL2 and CCL3 are two chemokines well known in mediating immune cell trafficking and immune response in the context of neuropathic pain.
(§1) The induction of diabetes was confirmed 72 h after streptozotocin injection by measurement of blood glucose levels using Contour® blood glucose diagnostic kit (Bayer HealthCare, Canada). Body weight and blood glucose levels were measured before and 3 days after streptozotocin injection, once a week for three weeks after diabetes induction. Only rats having blood glucose concentration consistently higher than 300 mg/dl were used for the present study.

Experiment [2] relates to Male, Sprague-Dawley rats. As to conditions: for morphine analgesia in an animal model of post-surgical pain (reversal of mechanical allodynia): RAP-103 0.5 mg/kg i.p. plus morphine 5.0 mg/kg s.c. vs morphine alone, 25 min post-surgery, FIG. 4.
Experiment [3] deals with Streptozotocin (STZ) induced diabetic rats. The procedure:
as §1
(§2) Appropriate concentration for each dose was adjusted accordingly.
Animals were placed in Plexiglas boxes on an elevated metal mesh floor and allowed 60 min for habituation before testing. […] Withdrawal thresholds of both paws were averaged as one single value per animal.
(§3) Assessment on the effects of RAP103 on mechanical and cold allodynia was performed between 2-4 hours following the drug administration.
(§4) All data were presented as means±SEM. Statistical analysis was performed by two-way ANOVA followed by Bonferroni post-tests. The criterion for statistical significance was P<0.05.

For experiment [4] the test system is unchanged. As to conditions: oral gavage daily, FIGS. 2A-B. As to the method:
as §1, §2
Cumulative scores were then obtained by summing the four scores for each rat, the minimum score being 0 (no response to any of the four trials) and the maximum possible score being 12 (repeated flicking and licking of paws on each of the four trials).
as §3, §4

As to all-D-TTNYT [RAP-103], the entries for the “inflammation in the sciatic nerves of STZ rats (inflammatory mediators)” value in experiment [1] and in experiment [1] (listed as RAP103) were “reducing significantly all examined inflammatory mediators” and “significantly inhibited inflammation”, respectively. Also, the results for the “morphine analgesia in an animal model of post-surgical pain (reversal of mechanical allodynia)” value in experiment [2] and in experiment [2] (listed as RAP103) were “statistically significantly greater analgesia” and “potentiates morphine analgesia”, respectively. The “shift to the left of the ED50 for morphine by addition of RAP-103” value in experiment [2] (RAP-103 0.5 mg/kg plus morphine 0.5 to 5.0 mg/kg, % reversal of mechanical allodynia at t=60 min, FIG. 5) is recorded as “about 2 fold”. Further, in experiment [3] (0.5.-0.02 mg/Kg b.w., daily, for 7 days, mechanical and cold allodynia), the “established hypersensitivity in STZ rats” value is “complete reversal of established hypersensitivity”. Besides, in experiment [3] (STZ diabetic rats, oral gavage daily, FIGS. 1A-B), the “mechanical allodynia in rats with neuropathic pain” value is listed as “reversed mechanical allodynia”. Further, the “cold allodynia in rats with neuropathic pain” value in experiment [4] was “reversed cold allodynia”.
